Values quoted from earlier work, collected in PubChem BioAssay AID1259409 (Chemical Carcinogenesis Research Information System (CCRIS), 2018).

Test system: rodent chemically induced tumor inhibition, incidence and multiplicity
Test: CCRIS tumor inhibitor studies
Conditions: Route [Inhibitor]: ORAL

**Q.** Which outcome (Carcinogen: N-BIS(2-HYDROXYPROPYL)NITROSAMINE, 53609-64-6, Dose [Inhibitor]: 0, 1% IN DIET FOR 30 WK BEGINNING POST CARCINOGEN TREATMENT (STUDY DURATION: 32 WK), Species: RAT, Strain/Sex: F344/MALE, Target Tissue: Type of Lesion: LUNG: ADENOMA, Dose [Carcinogen]: 0.1% IN DRINKING WATER FOR 2 WK, Promoter: NONE USED) does the source give for `Cc1c(C)c2c(c(C)c1O)CC[C@@](C)(CCC[C@H](C)CCC[C@H](C)CCCC(C)C)O2` here?
**A.** 100%, 100%, 0, not significant

**Q.** What about the “tumour outcome (control, treated, inhibition, significance)” value (Carcinogen: N-BIS(2-HYDROXYPROPYL)NITROSAMINE, 53609-64-6, Dose [Inhibitor]: 0, 1% IN DIET FOR 30 WK BEGINNING POST CARCINOGEN TREATMENT (STUDY DURATION: 32 WK), Species: RAT, Strain/Sex: F344/MALE, Target Tissue: Type of Lesion: THYROID: ADENOMA, Dose [Carcinogen]: 0.1% IN DRINKING WATER FOR 2 WK, Promoter: NONE USED) of the same molecule?
**A.** 5%, 10%, -100%, not calculated

**Q.** What about the “tumour outcome (control, treated, inhibition, significance)” value (Carcinogen: N-BIS(2-HYDROXYPROPYL)NITROSAMINE, 53609-64-6, Dose [Inhibitor]: 0, 1% IN DIET FOR 30 WK BEGINNING POST CARCINOGEN TREATMENT (STUDY DURATION: 32 WK), Species: RAT, Strain/Sex: F344/MALE, Target Tissue: Type of Lesion: THYROID: CARCINOMA, Dose [Carcinogen]: 0.1% IN DRINKING WATER FOR 2 WK, Promoter: NONE USED) of the same molecule?
**A.** 20%, 10%, 50%, not calculated

**Q.** And the “tumour outcome (control, treated, inhibition, significance)” value (Carcinogen: N-BIS(2-HYDROXYPROPYL)NITROSAMINE, 53609-64-6, Dose [Inhibitor]: 0, 1% IN DIET FOR 30 WK BEGINNING POST CARCINOGEN TREATMENT (STUDY DURATION: 32 WK, Species: RAT, Strain/Sex: F344/MALE, Target Tissue: Type of Lesion: LUNG: CARCINOMA, Dose [Carcinogen]: 0.1% IN DRINKING WATER FOR 2 WK, Promoter: NONE USED)?
**A.** 45%, 10%, 78%, p<0.05

**Q.** And the “tumour outcome (control, treated, inhibition, significance)” value (Carcinogen: N-METHYL-N'-NITRO-N-NITROSOGUANIDINE, 70-25-7, N-ETHYL-N-HYDROXYETHYLNITROSAMINE, 13147-25-6, N-METHYLBENZYLNITROSAM, Carcinogen: N-METHYL-N'-NITRO-N-NITROSOGUANIDINE, 70-25-7, N-ETHYL-N-HYDROXYETHYLNITROSAMINE, 13147-25-6, N-METHYLBENZYLNITROSAM, Dose [Inhibitor]: 0, 1% IN DIET FOR 36 WK (STUDY DURATION: 36 WK), Species: RAT, Strain/Sex: F344/MALE, Target Tissue: Type of Lesion: KIDNEY: RENAL CELL TUMOR, Dose [Carcinogen]: 100 MG/KG BW MNNG ONCE, 750 MG/KG BW EHEN ONCE, 0.5 MG/KG BW MBN TWICE, 40 MG/KG BW DMH 4 TIMES, 0.05% DBN IN DRINKING W, Promoter: NONE USED)?
**A.** 8/18 (44%), 5/18 (28%), 36%, not calculated

**Q.** And the “tumour outcome (control, treated, inhibition, significance)” value (Carcinogen: N-METHYL-N-NITROSOUREA, 684-93-5, Dose [Inhibitor]: 0, 3.349 UMOL/G IN DIET FOR DURATION OF STUDY (STUDY DURATION: 19 WK), Species: RAT, Strain/Sex: SPRAGUE-DAWLEY/FEMALE, Target Tissue: Type of Lesion: MAMMARY GLAND: TUMOR, Dose [Carcinogen]: 30 MG/KG IN ACIDIFIED SALINE ONCE, Promoter: NONE USED)?
**A.** 60%, 50%, 17%, not significant

**Q.** And the “tumour outcome (control, treated, inhibition, significance)” value (Carcinogen: N-METHYLBENZYLNITROSAMINE, 937-40-6, Dose [Inhibitor]: 30, 142 IU IN BASAL DIET BEGINNING 1 WK POST CARCINOGEN TREATMENT (STUDY DURATION: 26 WK), Species: MOUSE, Strain/Sex: C57BL/FEMALE, Target Tissue: Type of Lesion: ESOPHAGUS: TUMORS, Dose [Carcinogen]: 0.2 MG/KG BW IN CORN OIL 3/WK FOR 3 WK, Promoter: NONE USED)?
**A.** 6/15 (40%), 3/15 (20%), 50%, p<0.05

**Q.** And the “tumour outcome (control, treated, inhibition, significance)” value (Carcinogen: N-METHYLBENZYLNITROSAMINE, 937-40-6, Dose [Inhibitor]: 30, 142 IU IN BASAL DIET BEGINNING 1 WK POST CARCINOGEN TREATMENT TO MICE INFECTED WITH LP-BM5 MURINE RETROVIRUS (STUDY, Species: MOUSE, Strain/Sex: C57BL/FEMALE, Target Tissue: Type of Lesion: ESOPHAGUS: TUMORS, Dose [Carcinogen]: 0.2 MG/KG BW IN CORN OIL 3/WK FOR 3 WK, Promoter: NONE USED)?
**A.** 12/15 (80%), 11/16 (69%), 14%, not significant

**Q.** What about the “tumour outcome (control, treated, inhibition, significance)” value (Carcinogen: N-NITROSOMETHYLBENZYLAMINE, 937-40-6, Dose [Inhibitor]: 20, 142 MG/KG DIET BEGINNING POST CARCINOGEN TREATMENT AND CONTINUING FOR DURATION OF STUDY (STUDY DURATION: 23 WK), Species: MOUSE, Strain/Sex: C57BL/FEMALE, Target Tissue: Type of Lesion: ESOPHAGUS: TUMOR, Dose [Carcinogen]: 0.2 MG/KG BW IN CORN OIL 3/WK FOR 3 WK, Promoter: ETHANOL, 64-17-5) of the same molecule?
**A.** 10/17 (59%), 6/16 (38%), 36%, p<0.05

**Q.** What about the “tumour outcome (control, treated, inhibition, significance)” value (Carcinogen: NONE USED, Dose [Inhibitor]: 25.5, 550.9 MG/KG IN DIET FOR 40 WK (STUDY DURATION: 40 WK), Species: MOUSE, Strain/Sex: STRAIN-A/MALE, Target Tissue: Type of Lesion: LUNG: TUMOR, Promoter: NONE USED) of the same molecule?
**A.** 8/15 (53%), 4/15 (27%), 49%, not significant

**Q.** What about the “tumour outcome (control, treated, inhibition, significance)” value (Carcinogen: URETHANE, 51-79-6, Dose [Inhibitor]: 25, 500 MG/KG IN DIET FOR THE DURATION OF STUDY (STUDY DURATION: 26 WK), Species: MOUSE, Strain/Sex: DDY/MALE, Target Tissue: Type of Lesion: LUNG: TUMOR, Dose [Carcinogen]: 750 MG/KG BW ONCE, Promoter: NONE USED) of the same molecule?
**A.** 100%, 80%, 20%, not calculated
